System: Samenblasen- und Prostatagewichts von Ratten
Experiment: Antiandrogenic effect: inhibition of the testosterone propionate-induced increase in seminal vesicle and prostate weight of rats after subcutaneous administration
Assay type: in vivo
Settings: for Testosteronpropionat-Hemmung Prostata / Testosteronpropionat-Hemmung Samenblase: rats, subcutaneous administration, Dosis 0,3 mg/Tag per animal; for Testosteronpropionat-Hemmung Prostata: prostate weight; for Testosteronpropionat-Hemmung Samenblase: seminal vesicle weight
From the text: Die neuen Verbindungen der allgemeinen Formel 1 besitzen starke antiandrogene Wirkung.

SMILES: CC[C@H]1C[C@H]2[C@@H]3CCC4=CC(=O)CCC4=C3CC[C@]2(C)[C@H]1O [A, 16ß-Ethyl-17ß-hydroxy-4,9(10)-estradien-3-on]
- Testosteronpropionat-Hemmung Prostata: 18%
- Testosteronpropionat-Hemmung Samenblase: 34%
- antiandrogene Wirkung (result in words, comparison of A with B at 0,3 mg pro Tier und Tag, or general statement): signifikant wirksamer

SMILES: CC[C@H]1C[C@H]2[C@@H]3CCC4=CC(=O)CC[C@@H]4[C@H]3CC[C@]2(C)[C@H]1O [B, 16ß-Ethyl-17ß-hydroxy-4-estren-3-on, reference compound]
- Testosteronpropionat-Hemmung Prostata: 0%
- Testosteronpropionat-Hemmung Samenblase: 13%

Source: EP0044495B1, “16-Beta ethyl steroids, compositions containing them and process for their preparation” (SCHERING AKTIENGESELLSCHAFT, priority 1980, dated 1982)
